In the OligoGym collection:
Values joined by “and” are separate entries in the source; they are usually repeats but may differ in a detail not shown here. Equal entries are not always repeated. After the bases stand the sugars from the 5' end (letter, count) and the backbone: PS all phosphorothioate, else s phosphorothioate and o phosphodiester by linkage. Methylation of C is not given here. e = 2'-O-(2-methoxyethyl) (MOE); k = constrained ethyl (cEt); d = 2'-deoxy (DNA)

Target: SOD1
Settings: ASO

CTATACAAATCTTCCAA (sugars e3 k2 d7 k2 e3, PS)
target mRNA inhibition (HepG2, 3 µM): 13%

CTCCTGAGAGTGAGATCACA (sugars e5 d10 e5, PS)
target mRNA inhibition (HepG2, 5 µM): 27%

CTCGAAATTGATGATGCCCT (sugars e5 d10 e5, PS)
target mRNA inhibition (HepG2, 4 µM): 31%

CTCGCCCACTCTGGCCCCAA (sugars e5 d10 e5, PS)
target mRNA inhibition (HepG2, 4 µM): 45%

CTGCACTGGTACAGCCT (sugars e3 k2 d7 k2 e3, PS)
target mRNA inhibition (HepG2, 3 µM): 3%

CTGGCAAAATACAGGTC (sugars e2 k2 d9 k2 e2, PS)
target mRNA inhibition (HepG2, 5 µM): 53%

CTGGCAAAATACAGGTC (sugars e3 k2 d7 k2 e3, PS)
target mRNA inhibition (HepG2, 3 µM): 18%

CTGTGATTTAAGTCTGG (sugars e2 k2 d9 k2 e2, PS)
target mRNA inhibition (HepG2, 5 µM): 61%

CTTCCCCACACCTTCAC (sugars e3 k2 d7 k2 e3, PS)
target mRNA inhibition (HepG2, 3 µM): 29%

CTTCCCCACACCTTCACT (sugars e5 d8 e5, linkages s1 o3 s9 o2 s2)
target mRNA inhibition (A431, 0.12 µM): 0%
target mRNA inhibition (A431, 0.6 µM): 8%
target mRNA inhibition (A431, 3 µM): 3%
target mRNA inhibition (A431, 15 µM): 0%
target mRNA inhibition (HepG2, 0.222 µM): 0%
target mRNA inhibition (HepG2, 0.667 µM): 8%
target mRNA inhibition (HepG2, 2 µM): 38%
target mRNA inhibition (HepG2, 6 µM): 48%

CTTTTAAGATTACAGTG (sugars e2 k2 d8 k2 e3, PS)
target mRNA inhibition (HepG2, 5 µM): 62%

CTTTTAAGATTACAGTG (sugars e2 k2 d9 k2 e2, PS)
target mRNA inhibition (HepG2, 5 µM): 53%

CTTTTAATAGCCTCATAATA (sugars e5 d10 e5, PS)
target mRNA inhibition (HepG2, 5 µM): 0%

CTTTTTCATGGACCACC (sugars e3 k2 d7 k2 e3, PS)
target mRNA inhibition (HepG2, 3 µM): 87%

GAAATTCTGACAAGTTT (sugars e3 k2 d7 k2 e3, PS)
target mRNA inhibition (HepG2, 3 µM): 14%

GAATCTTCAATAGACACATC (sugars e5 d10 e5, PS)
target mRNA inhibition (HepG2, 5 µM): 22% and 11%

GAATGTTTATTGGGCGA (sugars e2 k2 d8 k2 e3, PS)
target mRNA inhibition (HepG2, 4 µM): 47%

GACAAAGAAATTCTGACAAG (sugars e5 d10 e5, PS)
target mRNA inhibition (HepG2, 5 µM): 8%

GACAAGTTTAATACCCA (sugars e2 k2 d8 k2 e3, PS)
target mRNA inhibition (HepG2, 5 µM): 54%

GACTACATCCAAGGGAA (sugars e3 k2 d7 k2 e3, PS)
target mRNA inhibition (HepG2, 3 µM): 19%

GAGACTACGACGCAAACCAG (sugars e5 d10 e5, PS)
target mRNA inhibition (HepG2, 4 µM): 23%

GAGGACCTGCACTGGTA (sugars e3 k2 d7 k2 e3, PS)
target mRNA inhibition (HepG2, 3 µM): 17%

GAGGTCCTGGTTCCGAGGAC (sugars e5 d10 e5, PS)
target mRNA inhibition (HepG2, 4 µM): 31%

GAGTTTTATAAAACTAT (sugars e3 k2 d7 k2 e3, PS)
target mRNA inhibition (HepG2, 3 µM): 6%

GATAACAGATGAGTTAA (sugars e2 k2 d9 k2 e2, PS)
target mRNA inhibition (HepG2, 4 µM): 28%

GATAACAGATGAGTTAA (sugars e3 k2 d7 k2 e3, PS)
target mRNA inhibition (HepG2, 3 µM): 11%

GATACATTTCTACAGCT (sugars e2 k2 d8 k2 e3, PS)
target mRNA inhibition (HepG2, 4 µM): 64%

GATACATTTCTACAGCTA (sugars e5 d8 e5, linkages s1 o3 s9 o2 s2)
target mRNA inhibition (A431, 0.12 µM): 7%
target mRNA inhibition (A431, 0.6 µM): 15%
target mRNA inhibition (A431, 3 µM): 39%
target mRNA inhibition (A431, 15 µM): 52%
target mRNA inhibition (HepG2, 0.222 µM): 28%
target mRNA inhibition (HepG2, 0.667 µM): 59%
target mRNA inhibition (HepG2, 2 µM): 73%
target mRNA inhibition (HepG2, 6 µM): 85%

GATAGAGGATTAAAGTG (sugars e3 k2 d7 k2 e3, PS)
target mRNA inhibition (HepG2, 3 µM): 8%

GATCATAAATCAGTTTC (sugars e2 k2 d8 k2 e3, PS)
target mRNA inhibition (HepG2, 5 µM): 34%

GATCCCAATTACACCAC (sugars e3 k2 d7 k2 e3, PS)
target mRNA inhibition (HepG2, 3 µM): 3%

GATGCCCTGCACTGGGCCGT (sugars e5 d10 e5, PS)
target mRNA inhibition (HepG2, 4 µM): 15%

GATTAAAGTGAGGACCT (sugars e3 k2 d7 k2 e3, PS)
target mRNA inhibition (HepG2, 3 µM): 8%

GATTACAGTGTTTAATG (sugars e2 k2 d9 k2 e2, PS)
target mRNA inhibition (HepG2, 5 µM): 61%

GATTACAGTGTTTAATG (sugars e3 k2 d7 k2 e3, PS)
target mRNA inhibition (HepG2, 3 µM): 10%

GATTCTTTTAATAGCCTCAT (sugars e5 d10 e5, PS)
target mRNA inhibition (HepG2, 5 µM): 4%

GCAGGAGACTACGACGCAAA (sugars e5 d10 e5, PS)
target mRNA inhibition (HepG2, 4 µM): 33%

GCAGGATAACAGATGAG (sugars e2 k2 d8 k2 e3, PS)
target mRNA inhibition (HepG2, 0.1875 µM): 26%
target mRNA inhibition (HepG2, 0.75 µM): 67%
target mRNA inhibition (HepG2, 3 µM): 84%
target mRNA inhibition (HepG2, 4 µM): 79%
target mRNA inhibition (HepG2, 12 µM): 93%

GCAGGATAACAGATGAG (sugars e2 k2 d9 k2 e2, PS)
target mRNA inhibition (HepG2, 0.1875 µM): 31%
target mRNA inhibition (HepG2, 0.75 µM): 75%
target mRNA inhibition (HepG2, 3 µM): 90%
target mRNA inhibition (HepG2, 4 µM): 86% and 83%
target mRNA inhibition (HepG2, 12 µM): 89% and 97%

GCCCAAGTCATCTGCTT (sugars e3 k2 d7 k2 e3, PS)
target mRNA inhibition (HepG2, 3 µM): 93%

GCCGTCGCCCTTCAGCA (sugars e2 k2 d8 k2 e3, PS)
target mRNA inhibition (HepG2, 4 µM): 64%

GCCTCAGACTACATCCA (sugars e3 k2 d7 k2 e3, PS)
target mRNA inhibition (HepG2, 3 µM): 43%

GCGATCCCAATTACACC (sugars e2 k2 d9 k2 e2, PS)
target mRNA inhibition (HepG2, 4 µM): 58%

GCGATCCCAATTACACC (sugars e3 k2 d7 k2 e3, PS)
target mRNA inhibition (HepG2, 3 µM): 19%

GCTTGAATGACAAAGAA (sugars e2 k2 d9 k2 e2, PS)
target mRNA inhibition (HepG2, 5 µM): 32%

GGAATGTTTATTGGGCG (sugars e2 k2 d9 k2 e2, PS)
target mRNA inhibition (HepG2, 4 µM): 58%

GGATAACAGATGAGTTAAGG (sugars e5 d10 e5, PS)
target mRNA inhibition (HepG2, 5 µM): 48%

GGATACATTTCTACAGC (sugars e2 k2 d9 k2 e2, linkages s1 o3 s9 o1 s2)
target mRNA inhibition (A431, 0.12 µM): 4%
target mRNA inhibition (A431, 0.6 µM): 12%
target mRNA inhibition (A431, 3 µM): 36%
target mRNA inhibition (A431, 15 µM): 51%
target mRNA inhibition (HepG2, 0.222 µM): 62%
target mRNA inhibition (HepG2, 0.667 µM): 78%
target mRNA inhibition (HepG2, 2 µM): 95%
target mRNA inhibition (HepG2, 6 µM): 91%

GGATACATTTCTACAGC (sugars e4 d9 k2 e2, linkages s1 o3 s9 o1 s2)
target mRNA inhibition (A431, 0.062 µM): 0%
target mRNA inhibition (A431, 0.185 µM): 1%
target mRNA inhibition (A431, 0.556 µM): 13%
target mRNA inhibition (A431, 1.667 µM): 28%
target mRNA inhibition (A431, 5 µM): 42%
target mRNA inhibition (A431, 15 µM): 55%
target mRNA inhibition (SH-SY5Y, 0.062 µM): 10%
target mRNA inhibition (SH-SY5Y, 0.185 µM): 3%
target mRNA inhibition (SH-SY5Y, 0.556 µM): 23%
target mRNA inhibition (SH-SY5Y, 1.667 µM): 35%
target mRNA inhibition (SH-SY5Y, 5 µM): 77%
target mRNA inhibition (SH-SY5Y, 15 µM): 78%

GGATTCTTTTAATAGCC (sugars e2 k2 d9 k2 e2, PS)
target mRNA inhibition (HepG2, 5 µM): 19%

GGCCTCAGACTACATCC (sugars e2 k2 d8 k2 e3, PS)
target mRNA inhibition (HepG2, 4 µM): 70%

GGCCTCAGACTACATCC (sugars e2 k2 d9 k2 e2, PS)
target mRNA inhibition (HepG2, 0.1875 µM): 4%
target mRNA inhibition (HepG2, 0.75 µM): 50%
target mRNA inhibition (HepG2, 3 µM): 68%
target mRNA inhibition (HepG2, 4 µM): 76%
target mRNA inhibition (HepG2, 12 µM): 86%

GGCCTCAGACTACATCC (sugars e3 k2 d7 k2 e3, PS)
target mRNA inhibition (HepG2, 3 µM): 24%

GGCGATCCCAATTACACCAC (sugars e5 d8 e7, linkages s1 o3 s10 o3 s2)
target mRNA inhibition (A431, 0.062 µM): 0%
target mRNA inhibition (A431, 0.185 µM): 9%
target mRNA inhibition (A431, 0.556 µM): 0%
target mRNA inhibition (A431, 1.667 µM): 0%
target mRNA inhibition (A431, 5 µM): 4%
target mRNA inhibition (A431, 15 µM): 0%
target mRNA inhibition (SH-SY5Y, 0.062 µM): 5%
target mRNA inhibition (SH-SY5Y, 0.185 µM): 2%
target mRNA inhibition (SH-SY5Y, 0.556 µM): 16%
target mRNA inhibition (SH-SY5Y, 1.667 µM): 25%
target mRNA inhibition (SH-SY5Y, 5 µM): 36%
target mRNA inhibition (SH-SY5Y, 15 µM): 61%

GGCTTGAATGACAAAGA (sugars e2 k2 d9 k2 e2, PS)
target mRNA inhibition (HepG2, 5 µM): 44%

GGTCCTGGTTCCGAGGACTG (sugars e5 d10 e5, PS)
target mRNA inhibition (HepG2, 4 µM): 14%

GGTTCCGAGGACTGCAACGG (sugars e5 d10 e5, PS)
target mRNA inhibition (HepG2, 4 µM): 35%

GGTTTTTATTCACAGGC (sugars e2 k2 d8 k2 e3, PS)
target mRNA inhibition (HepG2, 5 µM): 38%

GTCACACAATTACACTT (sugars e2 k2 d9 k2 e2, PS)
target mRNA inhibition (HepG2, 5 µM): 35%

GTCATTGAAACAGACAT (sugars e2 k2 d8 k2 e3, PS)
target mRNA inhibition (HepG2, 5 µM): 2%

GTCTCCAACATGCCTCT (sugars e3 k2 d7 k2 e3, PS)
target mRNA inhibition (HepG2, 3 µM): 8%

GTCTGGCAAAATACAGG (sugars e2 k2 d8 k2 e3, PS)
target mRNA inhibition (HepG2, 5 µM): 30%

GTGAGGACCTGCACTGGTAC (sugars e5 d10 e5, linkages s1 o3 s11 o3 s1)
target mRNA inhibition (A431, 0.12 µM): 0%
target mRNA inhibition (A431, 0.6 µM): 17%
target mRNA inhibition (A431, 3 µM): 0%
target mRNA inhibition (A431, 15 µM): 16%
target mRNA inhibition (HepG2, 0.222 µM): 0%
target mRNA inhibition (HepG2, 0.667 µM): 16%
target mRNA inhibition (HepG2, 2 µM): 70%
target mRNA inhibition (HepG2, 3 µM): 50%
target mRNA inhibition (HepG2, 6 µM): 35%

GTGATCATAAATCAGTT (sugars e2 k2 d9 k2 e2, PS)
target mRNA inhibition (HepG2, 5 µM): 48%

GTGCCATACAGGGTTTT (sugars e3 k2 d7 k2 e3, PS)
target mRNA inhibition (HepG2, 3 µM): 7%

GTGTTTAATGTTTATCA (sugars e2 k2 d8 k2 e3, PS)
target mRNA inhibition (HepG2, 0.1875 µM): 44%
target mRNA inhibition (HepG2, 0.75 µM): 71%
target mRNA inhibition (HepG2, 3 µM): 83%
target mRNA inhibition (HepG2, 5 µM): 86%
target mRNA inhibition (HepG2, 12 µM): 84%

GTGTTTAATGTTTATCA (sugars e2 k2 d9 k2 e2, PS)
target mRNA inhibition (HepG2, 0.1875 µM): 42%
target mRNA inhibition (HepG2, 0.75 µM): 68%
target mRNA inhibition (HepG2, 3 µM): 86%
target mRNA inhibition (HepG2, 5 µM): 86%
target mRNA inhibition (HepG2, 12 µM): 89%

GTGTTTAATGTTTATCA (sugars e2 k2 d9 k2 e2, linkages s1 o3 s9 o1 s2)
target mRNA inhibition (A431, 0.12 µM): 22%
target mRNA inhibition (A431, 0.6 µM): 57%
target mRNA inhibition (A431, 3 µM): 73%
target mRNA inhibition (A431, 15 µM): 84%
target mRNA inhibition (HepG2, 0.222 µM): 58%
target mRNA inhibition (HepG2, 0.667 µM): 68%
target mRNA inhibition (HepG2, 2 µM): 96%
target mRNA inhibition (HepG2, 6 µM): 83%
